{"source": "patent US10239869B2", "about": "“Sulfonamide compounds as voltage-gated sodium channel modulators” (LUPIN LIMITED, priority 2015, dated 2019)"}
{"target": "Nav 1.5 (Homo sapiens (Human), UniProt Q14524)", "sequence (Q14524 whole entry)": "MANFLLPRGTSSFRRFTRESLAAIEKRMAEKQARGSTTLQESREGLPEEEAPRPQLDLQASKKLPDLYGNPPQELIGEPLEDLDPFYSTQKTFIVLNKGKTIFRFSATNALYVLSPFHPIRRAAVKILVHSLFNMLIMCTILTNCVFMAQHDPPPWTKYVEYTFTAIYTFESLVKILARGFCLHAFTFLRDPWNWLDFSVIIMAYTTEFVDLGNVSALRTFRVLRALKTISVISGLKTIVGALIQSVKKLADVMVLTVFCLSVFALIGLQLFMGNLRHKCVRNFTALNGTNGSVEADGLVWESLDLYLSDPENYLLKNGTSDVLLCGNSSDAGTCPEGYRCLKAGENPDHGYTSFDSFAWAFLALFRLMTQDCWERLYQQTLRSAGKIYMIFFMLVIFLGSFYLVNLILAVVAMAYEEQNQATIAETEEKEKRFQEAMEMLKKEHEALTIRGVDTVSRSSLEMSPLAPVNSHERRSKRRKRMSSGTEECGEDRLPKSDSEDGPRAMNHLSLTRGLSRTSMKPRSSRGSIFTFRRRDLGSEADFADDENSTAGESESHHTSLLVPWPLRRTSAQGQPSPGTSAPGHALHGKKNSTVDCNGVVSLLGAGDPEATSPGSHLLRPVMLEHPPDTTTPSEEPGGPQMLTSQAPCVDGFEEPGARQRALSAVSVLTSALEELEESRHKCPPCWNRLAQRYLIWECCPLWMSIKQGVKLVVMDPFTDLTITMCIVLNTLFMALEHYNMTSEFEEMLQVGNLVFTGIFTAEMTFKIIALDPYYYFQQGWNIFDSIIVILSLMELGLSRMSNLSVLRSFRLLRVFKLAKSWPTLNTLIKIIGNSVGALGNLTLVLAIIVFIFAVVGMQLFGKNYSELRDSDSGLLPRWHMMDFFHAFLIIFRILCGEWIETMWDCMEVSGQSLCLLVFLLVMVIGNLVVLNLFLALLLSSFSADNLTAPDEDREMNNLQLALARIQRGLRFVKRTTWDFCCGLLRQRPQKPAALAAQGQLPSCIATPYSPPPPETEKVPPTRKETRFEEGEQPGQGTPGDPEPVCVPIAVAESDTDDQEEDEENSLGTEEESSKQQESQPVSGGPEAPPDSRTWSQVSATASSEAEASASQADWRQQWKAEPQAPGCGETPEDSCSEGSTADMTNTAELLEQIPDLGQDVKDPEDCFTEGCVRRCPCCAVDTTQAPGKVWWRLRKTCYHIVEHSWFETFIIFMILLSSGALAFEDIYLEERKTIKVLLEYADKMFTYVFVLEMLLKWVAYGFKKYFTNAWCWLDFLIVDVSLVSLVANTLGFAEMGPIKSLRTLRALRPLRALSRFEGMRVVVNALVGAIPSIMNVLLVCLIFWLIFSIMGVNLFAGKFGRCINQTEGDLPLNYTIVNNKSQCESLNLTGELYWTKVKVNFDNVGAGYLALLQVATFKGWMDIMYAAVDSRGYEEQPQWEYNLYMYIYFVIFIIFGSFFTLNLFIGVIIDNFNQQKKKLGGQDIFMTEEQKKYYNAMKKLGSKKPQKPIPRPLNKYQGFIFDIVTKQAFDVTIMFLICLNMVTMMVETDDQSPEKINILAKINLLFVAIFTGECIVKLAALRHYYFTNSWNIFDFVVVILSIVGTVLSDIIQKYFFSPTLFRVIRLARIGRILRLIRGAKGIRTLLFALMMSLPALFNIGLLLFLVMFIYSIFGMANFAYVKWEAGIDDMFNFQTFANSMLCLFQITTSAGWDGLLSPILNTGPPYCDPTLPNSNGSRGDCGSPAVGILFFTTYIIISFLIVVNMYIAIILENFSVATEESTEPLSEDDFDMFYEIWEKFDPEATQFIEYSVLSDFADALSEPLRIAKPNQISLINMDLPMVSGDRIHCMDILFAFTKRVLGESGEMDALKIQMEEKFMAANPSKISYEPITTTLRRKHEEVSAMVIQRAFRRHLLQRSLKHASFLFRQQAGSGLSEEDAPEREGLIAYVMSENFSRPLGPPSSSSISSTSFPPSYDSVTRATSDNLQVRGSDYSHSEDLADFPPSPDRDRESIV", "experiment": "Inhibition of sodium channels, Red Membrane Potential Dye FLIPR assay, veratridine depolarization", "type": "cell-based", "conditions": "HEK-293 cells overexpressing the channel; 10 μM", "units": {"Nav1.5 % inhibition @ 10 μM": "%"}}
{"smiles": "O=S(=O)(Nc1ncccn1)c1ccc2c(c1)OCC[C@@H]2c1ccc(C(F)(F)F)cc1N1CCOCC1", "note": "[Example 119, (S&R)-4-(2-morpholino-4-(trifluoromethyl)phenyl)-N-(pyrimidin-2-yl)chroman-7-sulfonamide]", "Nav1.5 % inhibition @ 10 μM": 30}
{"smiles": "O=S(=O)(Nc1ncccn1)c1ccc2c(c1)OCC[C@@H]2c1ccc(C(F)(F)F)cc1-c1ccc(F)cn1", "note": "[Example-194, (S&R)-4-(2-(5-fluoropyridin-2-yl)-4-(trifluoromethyl)phenyl)-N-(pyrimidin-2-yl)chroman-7-sulfonamide]", "Nav1.5 % inhibition @ 10 μM": 65}
{"smiles": "O=S(=O)(Nc1cccc(F)n1)c1ccc2c(c1)OCC[C@@H]2c1ccc(C(F)(F)F)cc1-c1ccc(F)cc1", "note": "[Example 50, (S&R)-4-(4′-Fluoro-5-(trifluoromethyl)-[, 1′-biphenyl]-2-yl)-N-(6-fluoropyridin-2-yl) chromane-7-sulfonamide]", "Nav1.5 % inhibition @ 10 μM": 38}
{"target": "Nav 1.5 (Homo sapiens (Human), UniProt Q14524)", "experiment": "Inhibition of sodium channels, Red Membrane Potential Dye FLIPR assay, veratridine depolarization", "type": "cell-based", "conditions": "HEK-293 cells overexpressing the channel; read-out: Nav1.5 IC50 (bound given in μM)", "units": {"IC50": "µM"}}
{"smiles": "O=S(=O)(Nc1ncccn1)c1ccc2c(c1)OCC[C@H]2c1ccc(C(F)(F)F)cc1-n1ccnn1", "note": "[Example 51, (S&R)-4-(2-(1H-1,2,3-Triazol-1-yl)-4-(trifluoromethyl)phenyl)-N-(pyrimidin-2-yl)chromane-7-sulfonamide]", "IC50": "> 10"}
{"smiles": "O=S(=O)(Nc1ccncn1)c1ccc2c(c1)OCC[C@@H]2c1ccc(C(F)(F)F)cc1-c1ccc(F)cc1", "note": "[Example 48, (S&R)-4-(4′-Fluoro-5-(trifluoromethyl)-[1,1′-biphenyl]-2-yl)-N-(pyrimidin-4-yl)chromane-7-sulfonamide]", "IC50": "> 10"}
{"smiles": "O=S(=O)(Nc1ncccn1)c1ccc2c(c1)OCC[C@H]2c1ccc(C(F)(F)F)cc1-c1ccc(F)cn1", "note": "[Example-193, (S&R)-4-(2-(5-fluoropyridin-2-yl)-4-(trifluoromethyl)phenyl)-N-(pyrimidin-2-yl)chroman-7-sulfonamide]", "IC50": "> 10"}
{"smiles": "O=S(=O)(Nc1ncccn1)c1ccc2c(c1)OCC[C@@H]2c1ccc(C(F)(F)F)cc1-n1ccnn1", "note": "[Example 52, (S&R)-4-(2-(1H-1,2,3-Triazol-1-yl)-4-(trifluoromethyl)phenyl)-N-(pyrimidin-2-yl)chromane-7-sulfonamide]", "IC50": "> 10"}
{"smiles": "Cc1ccc(-c2cc(C(F)(F)F)ccc2[C@H]2CCOc3cc(S(=O)(=O)Nc4ncccn4)ccc32)cn1", "note": "[Example-202, (R)-4-(2-(6-methylpyridin-3-yl)-4-(trifluoromethyl)phenyl)-N-(pyrimidin-2-yl)chroman-7-sulfonamide]", "IC50": "> 10"}
{"smiles": "O=S(=O)(Nc1cccc(F)n1)c1ccc2c(c1)OCC[C@@H]2c1ccc(C(F)(F)F)cc1-n1ccnn1", "note": "[Example 60, (S&R)-4-(2-(1H-1,2,3-Triazol-1-yl)-4-(trifluoromethyl)phenyl)-N-(6-fluoropyridin-2-yl) chromane-7-sulfonamide]", "IC50": "> 10"}
{"smiles": "O=S(=O)(Nc1ncc(F)cn1)c1ccc2c(c1)OCC[C@@H]2c1ccc(C(F)(F)F)cc1-n1ccnn1", "note": "[Example 56, (S&R)-4-(2-(1H-1,2,3-Triazol-1-yl)-4-(trifluoromethyl)phenyl)-N-(5-fluoropyrimidin-2-yl) chromane-7-sulfonamide]", "IC50": "> 10"}
{"smiles": "O=S(=O)(Nc1ncc(F)cn1)c1ccc2c(c1)OCC[C@@H]2c1ccc(C(F)(F)F)cc1-c1ccc(F)nc1", "note": "[Example 38, (S&R)-4-(2-(6-Fluoropyridin-3-yl)-4-(trifluoromethyl)phenyl)-N-(5-fluoropyrimidin-2-yl) chromane-7-sulfonamide]", "IC50": "> 10"}
{"smiles": "Cn1nccc1-c1cc(C(F)(F)F)ccc1[C@@H]1CCOc2cc(S(=O)(=O)Nc3ccncn3)ccc21", "note": "[Example 9, (S&R)-4-(2-(1-Methyl-1H-pyrazol-5-yl)-4-(trifluoromethyl)phenyl)-N-(pyrimidin-4-yl) chroman-7-sulfonamide]", "IC50": "> 10"}
{"smiles": "O=S(=O)(Nc1ccncn1)c1ccc2c(c1)OCC[C@@H]2c1ccc(C(F)(F)F)cc1-n1ccnn1", "note": "[Example 58, (S&R)-4-(2-(1H-1,2,3-Triazol-1-yl)-4-(trifluoromethyl)phenyl)-N-(pyrimidin-4-yl)chromane-7-sulfonamide]", "IC50": "> 10"}
{"smiles": "O=S(=O)(Nc1ccncn1)c1ccc2c(c1)OCC[C@H]2c1ccc(C(F)(F)F)cc1-n1ccnn1", "note": "[Example 57, (S&R)-4-(2-(1H-1,2,3-Triazol-1-yl)-4-(trifluoromethyl)phenyl)-N-(pyrimidin-4-yl)chromane-7-sulfonamide]", "IC50": "> 10"}
{"smiles": "O=S(=O)(Nc1ncc(F)cn1)c1ccc2c(c1)OCC[C@@H]2c1ccc(C(F)(F)F)cc1-c1ccc(F)cc1", "note": "[Example 46, (S&R)-4-(4′-Fluoro-5-(trifluoromethyl)-[1,1′-biphenyl]-2-yl)-N-(5-fluoropyrimidin-2-yl) chromane-7-sulfonamide]", "IC50": "> 10"}
{"smiles": "O=S(=O)(Nc1cccc(F)n1)c1ccc2c(c1)OCC[C@H]2c1ccc(C(F)(F)F)cc1-c1ccc(F)cc1", "note": "[Example 49, (S&R)-4-(4′-Fluoro-5-(trifluoromethyl)-[, 1′-biphenyl]-2-yl)-N-(6-fluoropyridin-2-yl) chromane-7-sulfonamide]", "IC50": "> 10"}
{"smiles": "Cn1nccc1-c1cc(C(F)(F)F)ccc1[C@@H]1CCOc2cc(S(=O)(=O)Nc3cc(F)ccn3)ccc21", "note": "[Example 3, (S&R)—N-(4-Fluoropyridin-2-yl)-4-(2-(1-methyl-1H-pyrazol-5-yl)-4-(trifluoromethyl)phenyl)chroman-7-sulfonamide]", "IC50": "> 10"}
{"smiles": "O=S1(=O)CCN(c2cc(C(F)(F)F)ccc2[C@H]2CCOc3cc(S(=O)(=O)Nc4ccncn4)ccc32)CC1", "note": "(racemic) [Example-237, (R/S)-4-(2-(1,1-dioxidothiomorpholino)-4-(trifluoromethyl)phenyl)-N-(pyrimidin-4-yl)chromane-7-sulfonamide]", "IC50": "> 10"}
{"smiles": "O=S1(=O)CCN(c2cc(C(F)(F)F)ccc2[C@H]2CCOc3cc(S(=O)(=O)Nc4ncc(F)cn4)ccc32)CC1", "note": "(racemic) [Example-234, (R/S)-4-(2-(1,1-dioxidothiomorpholino)-4-(trifluoromethyl)phenyl)-N-(5-fluoropyrimidin-2-yl)chroman-7-sulfonamide]", "IC50": "> 10"}
{"smiles": "O=S(=O)(Nc1ncc(F)cn1)c1ccc2c(c1)OCC[C@H]2c1ccc(C(F)(F)F)cc1-c1ccc(F)cc1", "note": "[Example 45, (S&R)-4-(4′-Fluoro-5-(trifluoromethyl)-[1,1′-biphenyl]-2-yl)-N-(5-fluoropyrimidin-2-yl) chromane-7-sulfonamide]", "IC50": "> 10"}
{"smiles": "Cc1ccc(-c2cc(C(F)(F)F)ccc2[C@@H]2CCOc3cc(S(=O)(=O)Nc4ncccn4)ccc32)cn1", "note": "[Example-201, (S)-4-(2-(6-methylpyridin-3-yl)-4-(trifluoromethyl)phenyl)-N-(pyrimidin-2-yl)chromane-7-sulfonamide]", "IC50": "> 10"}
{"smiles": "O=S(=O)(Nc1ncc(F)cn1)c1ccc2c(c1)OCC[C@H]2c1ccc(C(F)(F)F)cc1-c1ccc(F)nc1", "note": "[Example 37, (S&R)-4-(2-(6-Fluoropyridin-3-yl)-4-(trifluoromethyl)phenyl)-N-(5-fluoropyrimidin-2-yl) chromane-7-sulfonamide]", "IC50": "> 10"}
{"smiles": "O=S(=O)(Nc1ncccn1)c1ccc2c(c1)OCC[C@H]2c1ccc(C(F)(F)F)cc1N1CCOCC1", "note": "[Example 118, (S&R)-4-(2-morpholino-4-(trifluoromethyl)phenyl)-N-(pyrimidin-2-yl)chroman-7-sulfonamide]", "IC50": "> 10"}
